In patent US20240383899A1, “MODIFIED CARBAPENEM ANTIBIOTICS WITH IMPROVED ACTIVITY AGAINST KPC CARBAPENEMASE-PRODUCING ENTEROBACTERALES” (priority 2023, published 2024):
In brackets after ≈: the same amount, converted by molar mass. Like-named read-outs stand apart in the source and are kept apart here.

Columns and labels:
Experiment in all cases: In vitro activity (MIC) against Gram-negative aerobic bacteria
Format in all cases: cell-based
[1] = tested on: Klebsiella pneumoniae MMX 4683 (CDC ART2008030); ESBL, KPC-2
[2] = tested on: Acinetobacter baumannii MMX 2587; MDR
[3] = tested on: Citrobacter freundii MMX 6284
[4] = tested on: Klebsiella pneumoniae MMX 6854; ESBL
[5] = tested on: Serratia marcescens MMX 6462
[6] = tested on: Proteus mirabilis MMX 6442
[7] = tested on: Enterobacter cloacae MMX 6089
[8] = tested on: Acinetobacter baumannii ATCC 19606
[9] = tested on: Klebsiella pneumoniae MMX 4885; KPC
[10] = tested on: Acinetobacter baumannii MMX 2599

MIC ([1]; read-out: MIC) [µg/mL]	MIC ([2]; read-out: MIC) [µg/mL]	MIC ([3]; MMX6284, read-out: MIC) [µg/mL]	MIC ([4]; read-out: MIC) [µg/mL]	MIC ([5]; MMX6462, read-out: MIC) [µg/mL]	MIC ([6]; MMX6442, read-out: MIC) [µg/mL]	MIC ([7]; MMX6089, read-out: MIC) [µg/mL]	MIC ([8]; ATCC19606, read-out: MIC) [µg/mL]	MIC ([9]; read-out: MIC) [µg/mL]	MIC ([10]; MMX2599, read-out: MIC) [µg/mL]	Molecule	MIC [1] [µg/mL]	MIC [2] [µg/mL]	MIC [3] [µg/mL]	MIC [4] [µg/mL]	MIC [5] [µg/mL]	MIC [6] [µg/mL]	MIC [7] [µg/mL]	MIC [8] [µg/mL]	MIC [9] [µg/mL]	MIC [10] [µg/mL]
> 32	> 32	> 32	0.5 (≈ 0.915 µM)	0.25 (≈ 0.457 µM)	≤ 0.03	32 (≈ 58.5 µM)	8 (≈ 14.6 µM)	> 32	8 (≈ 14.6 µM)	CC(C)(O/N=C(\C(=O)N[C@@H]1C(=O)N2C(C(=O)[O-])=C(C[n+]3ccccc3)CS[C@H]12)c1csc(N)n1)C(=O)O [CAZ, ceftazidime]	–	–	–	–	–	–	–	–	–	–
> 8	> 8	> 8	0.25 (≈ 0.652 µM)	0.25 (≈ 0.652 µM)	0.12 (≈ 0.313 µM)	0.06 (≈ 0.156 µM)	2 (≈ 5.22 µM)	> 8	0.25 (≈ 0.652 µM)	C[C@@H](O)[C@H]1C(=O)N2C(C(=O)O)=C(S[C@@H]3CN[C@H](C(=O)N(C)C)C3)[C@H](C)[C@H]12 [MEM, meropenem]	–	–	–	–	–	–	–	–	–	–
> 32	> 32	> 32	> 32	> 32	> 32	> 32	> 32	> 32	> 32	Cc1ncc([N+](=O)[O-])n1CCO [MET, metronidazole]	–	–	–	–	–	–	–	–	–	–
> 4	> 4	> 4	0.5 (≈ 1.25 µM)	0.12 (≈ 0.299 µM)	0.25 (≈ 0.623 µM)	0.03 (≈ 0.0747 µM)	0.25 (≈ 0.623 µM)	> 4	0.12 (≈ 0.299 µM)	COc1c(N2C[C@@H]3CCCN[C@@H]3C2)c(F)cc2c(=O)c(C(=O)O)cn(C3CC3)c12 [MOX, moxifloxacin]	–	–	–	–	–	–	–	–	–	–
–	–	–	–	–	–	–	–	–	–	colistin	0.12	1	0.12	0.25	>32	>32	0.12	0.5	8	2

Molecule	MIC ([1]; read-out: MIC) [µg/mL]	MIC ([2]; read-out: MIC) [µg/mL]	MIC ([3]; MMX6284, read-out: MIC) [µg/mL]	MIC ([4]; read-out: MIC) [µg/mL]	MIC ([5]; MMX6462, read-out: MIC) [µg/mL]	MIC ([6]; MMX6442, read-out: MIC) [µg/mL]	MIC ([7]; MMX6089, read-out: MIC) [µg/mL]	MIC ([8]; ATCC19606, read-out: MIC) [µg/mL]	MIC ([9]; read-out: MIC) [µg/mL]	MIC ([10]; MMX2599, read-out: MIC) [µg/mL]	MIC [1] [µg/mL]	MIC [2] [µg/mL]	MIC [3] [µg/mL]	MIC [4] [µg/mL]	MIC [5] [µg/mL]	MIC [6] [µg/mL]	MIC [7] [µg/mL]	MIC [8] [µg/mL]	MIC [9] [µg/mL]	MIC [10] [µg/mL]
C[C@H](O)[C@H]1C(=O)N2C(C(=O)O)=C(S[C@@H]3CN[C@H](C(=O)N(C)C)C3)[C@H](C)[C@H]12 [JDB-1-200, (4R,5S,6S)-3-(((3S,5S)-5-(dimethylcarbamoyl)pyrrolidin-1-ium-3-yl)thio)-6-((S)-1-hydroxyethyl)-4-methyl-7-oxo-1-azabicyclo[3.2.0]hept-2-ene-2-carboxylate]	1 (≈ 2.61 µM)	32 (≈ 83.4 µM)	1 (≈ 2.61 µM)	0.5 (≈ 1.3 µM)	0.5 (≈ 1.3 µM)	1 (≈ 2.61 µM)	0.12 (≈ 0.313 µM)	0.5 (≈ 1.3 µM)	0.5 (≈ 1.3 µM)	0.12 (≈ 0.313 µM)	–	–	–	–	–	–	–	–	–	–
CN[C@H](CC(C)C)C(=O)N[C@H]1C(=O)N[C@@H](CC(N)=O)C(=O)N[C@H]2C(=O)N[C@H]3C(=O)N[C@H](C(=O)N[C@H](C(=O)O)c4cc(O)cc(O)c4-c4cc3ccc4O)[C@H](O)c3ccc(c(Cl)c3)Oc3cc2cc(c3O[C@@H]2O[C@H](CO)[C@@H](O)[C@H](O)[C@H]2O[C@H]2C[C@](C)(N)[C@H](O)[C@H](C)O2)Oc2ccc(cc2Cl)[C@H]1O [VAN, vancomycin]	> 32	> 32	> 32	> 32	> 32	> 32	> 32	> 32	> 32	> 32	–	–	–	–	–	–	–	–	–	–
